Patent publication US11214803B2, “Modulators of YAP1 expression” (Ionis Pharmaceuticals, Inc., priority 2019, dated 2022)
Marks after values point to notes of the source that are not given here. Strand notation (5' to 3'): a small letter for the sugar, then the base; units joined by * are phosphorothioate-linked, units joined directly phosphodiester-linked; [ ] holds rarer units or linkages, { } end groups; capitals alone tell only the bases. k = constrained ethyl (cEt); [5mC] = 5-methylcytosine; d = 2'-deoxy (DNA)

test system: Yap1 mRNA; assay: Antisense inhibition of human Yap1 in A-431 cells by cEt gapmers, single dose (Example 4, RTS4814); assay type: cell-based; details: Table 14; A-431 cells, 5,000 cells per well, free uptake, 2,000 nM, approximately 48 hours; RTS4814; normalized to RIBOGREEN; Yap1 mRNA relative to untreated control; * = targets amplicon region of primer probe set
In short: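 A-431 cells took up 3-10-3 cEt gapmers (16-mer, full phosphorothioate, 5-methylcytosines) by free uptake at 2,000 nM for about 48 h. Yap1 mRNA was quantified by qRT-PCR, normalized to total RNA (RIBOGREEN), and reported as % of untreated control.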

In the case of “1074432 (antisense kG*kT*kT*dA*dA*dA*dA*dT*dG*dA*dT*dT*dG*kG*kT*kG) [Compound 1074432]”, the “YAP1 (% UTC)” value is reported as 3* % UTC.

Point of comparison: “1076512 (antisense k[5mC]*kA*kT*dA*dA*dA*d[5mC]*d[5mC]*dA*dT*dT*dA*dA*kG*kT*kG) [Compound 1076512]”, “YAP1 (% UTC)” value 65 % UTC. Against it:
- 1076544 (antisense kG*kA*k[5mC]*d[5mC]*dA*dA*d[5mC]*d[5mC]*dT*d[5mC]*d[5mC]*d[5mC]*d[5mC]*kT*kT*kG) [Compound 1076544] — higher, 89 % UTC
- 1075520 (k[5mC]*k[5mC]*k[5mC]*d[5mC]*dA*dA*d[5mC]*dA*dA*d[5mC]*dT*dG*d[5mC]*kT*kA*kA; antisense) [Compound 1075520] — higher, 77 % UTC
- 1074208 (antisense kG*kT*kG*d[5mC]*dA*d[5mC]*dG*dA*dT*d[5mC]*dT*dG*dA*kT*kG*k[5mC]) [Compound 1074208] — higher, 96 % UTC
- 1075136 (antisense k[5mC]*kT*kA*dG*dA*dA*dT*dA*dT*dT*dA*dA*dA*kG*kG*kG) [Compound 1075136] — higher, 87 % UTC
- 1074240 (antisense k[5mC]*kT*kG*dG*d[5mC]*dA*dG*dA*dG*dG*dT*dA*d[5mC]*kA*kT*k[5mC]) [Compound 1074240] — lower, 29 % UTC

same assay, conditions: Table 15; A-431 cells, 5,000 cells per well, free uptake, 2,000 nM, approximately 48 hours; RTS4814; normalized to RIBOGREEN; Yap1 mRNA relative to untreated control; * = targets amplicon region of primer probe set

Point of comparison: “1075041 (antisense kG*kA*kT*dT*dA*dT*dA*dA*dA*dG*dA*dG*dG*k[5mC]*kT*k[5mC]) [Compound 1075041]”, “YAP1 (% UTC)” value 5 % UTC. Against it:
- 1075649 (k[5mC]*kT*kT*d[5mC]*dA*dA*dT*dA*dA*dA*dG*dT*dG*kG*kG*kA; antisense) [Compound 1075649] — higher, 56 % UTC
- 1075361 (kT*k[5mC]*kT*dT*dA*dA*dG*dG*dG*dA*dA*dT*dG*kT*kA*kT; antisense) [Compound 1075361] — higher, 69 % UTC
- 1074721 (antisense kG*kG*kA*dA*dG*dA*dT*d[5mC]*dT*d[5mC]*d[5mC]*dA*dT*kA*kT*kT) [Compound 1074721] — higher, 43 % UTC
- 1076033 (k[5mC]*kA*kT*dT*dA*dG*dT*dA*dG*dG*dT*dA*dT*kT*kT*k[5mC]; antisense) [Compound 1076033] — higher, 8 % UTC
- 1075201 (antisense k[5mC]*kT*kT*dT*dA*dA*dA*dG*d[5mC]*d[5mC]*d[5mC]*dT*dA*kA*kT*kT) [Compound 1075201] — higher, 114 % UTC
- 1076129 (k[5mC]*kA*kT*dA*dA*dA*d[5mC]*d[5mC]*dT*dT*dA*dG*dT*k[5mC]*k[5mC]*kT; antisense) [Compound 1076129] — higher, 26 % UTC

For “1074433 (antisense kA*kA*kG*dT*d[5mC]*dT*dG*dA*dG*dT*dA*dT*dT*kT*kA*kG) [Compound 1074433]”, the “YAP1 (% UTC)” value was 5* % UTC.

same assay, conditions: Table 16; A-431 cells, 5,000 cells per well, free uptake, 2,000 nM, approximately 48 hours; RTS4814; normalized to RIBOGREEN; Yap1 mRNA relative to untreated control cells

Point of comparison: “1076418 (kT*kA*kT*dA*dA*dT*dA*dA*d[5mC]*d[5mC]*d[5mC]*dA*dT*kT*kG*kT; antisense) [Compound 1076418]”, “YAP1 (% UTC)” value 63 % UTC. Against it:
- 1076066 (k[5mC]*kA*kT*dA*dT*dA*dA*dG*dA*dT*dG*dT*dT*kT*kG*k[5mC]; antisense) [Compound 1076066] — lower, 8 % UTC
- 1074466 (kA*k[5mC]*k[5mC]*dG*dA*d[5mC]*d[5mC]*d[5mC]*dT*dG*d[5mC]*d[5mC]*dA*kA*kA*kA; antisense) [Compound 1074466] — lower, 32 % UTC
- 1076002 (kA*kT*kT*dT*dA*dA*dT*dG*dG*d[5mC]*dT*dT*dG*k[5mC]*kA*kT; antisense) [Compound 1076002] — lower, 21 % UTC
- 1074146 (antisense kG*kA*kA*dG*d[5mC]*dG*dG*d[5mC]*dG*dA*d[5mC]*dG*dG*k[5mC]*kT*kG) [Compound 1074146] — higher, 91 % UTC
- 1074626 (antisense k[5mC]*kT*kG*dT*dT*dA*dT*dG*dA*dA*d[5mC]*d[5mC]*d[5mC]*kT*kT*kG) [Compound 1074626] — lower, 5 % UTC
- 1074178 (antisense kG*k[5mC]*k[5mC]*dT*d[5mC]*d[5mC]*d[5mC]*d[5mC]*d[5mC]*dG*dA*d[5mC]*dG*k[5mC]*kG*k[5mC]) [Compound 1074178] — higher, 95 % UTC
- 1075874 (k[5mC]*kT*kT*dA*dA*d[5mC]*dA*dA*d[5mC]*d[5mC]*d[5mC]*dT*dA*k[5mC]*kG*kA; antisense) [Compound 1075874] — higher, 113 % UTC
- 1075618 (kT*kT*kT*dT*dA*dA*dG*dA*dA*d[5mC]*dG*dA*d[5mC]*kA*kT*kA; antisense) [Compound 1075618] — higher, 69 % UTC
- 1075106 (antisense k[5mC]*kA*kA*dA*dT*dT*dA*dT*dA*dA*dG*dG*dT*k[5mC]*k[5mC]*kT) [Compound 1075106] — lower, 10 % UTC
- 1075650 (kA*kT*kA*dT*dT*dA*d[5mC]*dA*dA*dT*d[5mC]*d[5mC]*d[5mC]*kA*kG*k[5mC]; antisense) [Compound 1075650] — lower, 48 % UTC
- 1075458 (antisense k[5mC]*k[5mC]*kA*d[5mC]*dA*dA*dT*dA*dT*dA*d[5mC]*dT*d[5mC]*k[5mC]*kA*kA) [Compound 1075458] — lower, 7 % UTC
- 1074114 (kG*kA*kA*d[5mC]*dT*dT*dT*dT*dT*d[5mC]*d[5mC]*d[5mC]*dT*k[5mC]*k[5mC]*kA; antisense) [Compound 1074114] — lower, 30 % UTC

same assay, conditions: Table 17; A-431 cells, 5,000 cells per well, free uptake, 2,000 nM, approximately 48 hours; RTS4814; normalized to RIBOGREEN; Yap1 mRNA relative to untreated control cells

Point of comparison: “1074403 (antisense kG*k[5mC]*kT*dT*dA*dT*dG*dG*dA*dA*dA*dT*dT*kT*k[5mC]*k[5mC]) [Compound 1074403]”, “YAP1 (% UTC)” value 9 % UTC. Against it:
- 1074563 (antisense kT*kG*kA*dA*dT*dT*d[5mC]*d[5mC]*dA*dA*dT*d[5mC]*dG*kA*kG*kA) [Compound 1074563] — lower, 4 % UTC
- 1075587 (k[5mC]*kT*kT*dA*dT*dT*dA*dG*d[5mC]*dA*d[5mC]*d[5mC]*dT*kG*kG*kG; antisense) [Compound 1075587] — higher, 50 % UTC
- 1075395 (kA*kT*kG*dA*dA*dT*dA*dA*dG*dT*dA*dT*dG*k[5mC]*k[5mC]*kA; antisense) [Compound 1075395] — lower, 4 % UTC
- 1075779 (kG*kT*kA*dT*dT*dA*d[5mC]*dA*dA*dA*d[5mC]*dT*dG*kA*kT*kT; antisense) [Compound 1075779] — higher, 28 % UTC

same assay, conditions: Yap1 mRNA remaining as percent of untreated control; 3-10-3 cEt gapmers; A-431 cells; Table 36

Point of comparison: “1075958 (k[5mC]*kA*kT*dT*dA*dT*dG*dA*d[5mC]*dA*dT*dT*d[5mC]*k[5mC]*k[5mC]*k[5mC]; antisense) [compound 1075958]”, “YAP1 (% UTC)” value 12 % UTC. Against it:
- 1075094 (kG*kA*kT*dA*dA*dA*dT*dG*dT*dA*dA*d[5mC]*dT*kA*kG*k[5mC]; antisense) [compound 1075094] — lower, 10 % UTC
- 1075670 (antisense kT*kA*kT*dA*dT*dA*dT*dG*dA*dT*dG*dG*dA*k[5mC]*kT*kG) [compound 1075670] — higher, 39 % UTC
- 1074710 (antisense k[5mC]*kT*k[5mC]*dT*dA*dG*dA*dA*d[5mC]*dA*dG*d[5mC]*dT*kG*k[5mC]*k[5mC]) [compound 1074710] — higher, 42 % UTC
- 1075318 (antisense kA*kT*k[5mC]*d[5mC]*dT*dA*dA*dA*dG*d[5mC]*d[5mC]*dA*d[5mC]*kT*kG*k[5mC]) [compound 1075318] — higher, 72 % UTC
- 1076438 (kT*kA*kG*dG*dA*dA*dG*dA*dA*dT*dA*dG*d[5mC]*kA*kT*k[5mC]; antisense) [compound 1076438] — higher, 13 % UTC
- 1076214 (kA*kT*k[5mC]*d[5mC]*dT*dA*dT*dA*d[5mC]*dA*dT*dT*dA*kA*kG*kA; antisense) [compound 1076214] — higher, 67 % UTC
- 1075574 (antisense kA*kG*kT*d[5mC]*dA*dA*dG*dG*dA*dA*d[5mC]*d[5mC]*dT*kT*k[5mC]*kT) [compound 1075574] — higher, 47 % UTC

With “1074422 (kA*kA*kA*d[5mC]*dA*dG*dG*d[5mC]*dT*d[5mC]*dA*d[5mC]*dT*kT*k[5mC]*k[5mC]; antisense) [compound 1074422]” the “YAP1 (% UTC)” value was 9* % UTC.

same assay, conditions: Yap1 mRNA remaining as percent of untreated control; 3-10-3 cEt gapmers; A-431 cells; Table 37

Point of comparison: “1076055 (kA*kA*kT*dT*dA*d[5mC]*dT*dA*dA*d[5mC]*dA*dA*dT*k[5mC]*kT*k[5mC]; antisense) [compound 1076055]”, “YAP1 (% UTC)” value 45 % UTC. Against it:
- 1075383 (antisense kA*kA*kT*dT*dA*dT*dT*dA*d[5mC]*d[5mC]*d[5mC]*dT*dA*k[5mC]*kT*k[5mC]) [compound 1075383] — the same, 45 % UTC
- 1074551 (DNA kA*kA*kT*dA*dT*d[5mC]*dT*dA*d[5mC]*d[5mC]*dG*dT*dA*kT*kG*k[5mC]; antisense) [compound 1074551] — higher, 58 % UTC
- 1075159 (k[5mC]*kA*kA*dA*dA*dA*dA*dT*d[5mC]*dA*d[5mC]*dG*dG*k[5mC]*kA*kA; antisense) [compound 1075159] — higher, 63 % UTC
- 1074871 (kT*kG*kT*dA*dA*dG*dT*dA*d[5mC]*d[5mC]*dT*dA*dA*k[5mC]*kA*kT; antisense) [compound 1074871] — higher, 70 % UTC
- 1074359 (antisense kT*kT*k[5mC]*dG*dA*dG*dG*dG*dA*d[5mC]*dA*d[5mC]*dT*kG*kT*kA) [compound 1074359] — lower, 18 % UTC
- 1075543 (kA*kT*kA*dT*dA*dT*dT*dA*dG*dG*dA*dG*dT*kT*kT*k[5mC]; antisense) [compound 1075543] — lower, 22 % UTC
